Data set [1] in a line: Rat B/P (brain disposition). It counts as in vivo, male Sprague-Dawley rats. Particulars: male, Sprague-Dawley; for concentration at 1 h / Kp uu at 1 h / Kp at 1 h: time point 1.0 h; for concentration at 1 h / Kp at 1 h / concentration at 0.5 h / Kp at 0.5 h: mean ± stdev; for Kp uu at 1 h / Kp at 1 h / Kp uu at 0.5 h / Kp at 0.5 h: brain/plasma; for Kp uu at 1 h / Kp uu at 0.5 h: fubrain from brain homogenate; for Kp at 1 h / Kp at 0.5 h: n = 3; for concentration at 0.5 h / Kp uu at 0.5 h / Kp at 0.5 h: time point 0.5 h. On the procedure: Brain disposition was evaluated for each compound in male Sprague-Dawley rats (n=3, standard body weight). […] Isolated plasma and brain homogenates were extracted by standard protein precipitation in acetonitrile, containing internal standard, followed by LC-MS/MS analysis using an optimized analytical method. Concentrations of test compound in plasma and brain were quantified against matrix matched calibration standards. The total plasma and brain concentration data are presented in Table 7 alongside the calculated brain Kp (total brain concentration:total plasma concentration ratio).

For a further data set, the target named is T1, LRRK2 WT (Homo sapiens, UniProt Q5S007).
T1 construct: comprises residue 970 to 2527 of the full length human wild-type LRRK2 kinase; purchased Invitrogen (Life Technologies Corporation)
T1 sequence (Q5S007 970-2527): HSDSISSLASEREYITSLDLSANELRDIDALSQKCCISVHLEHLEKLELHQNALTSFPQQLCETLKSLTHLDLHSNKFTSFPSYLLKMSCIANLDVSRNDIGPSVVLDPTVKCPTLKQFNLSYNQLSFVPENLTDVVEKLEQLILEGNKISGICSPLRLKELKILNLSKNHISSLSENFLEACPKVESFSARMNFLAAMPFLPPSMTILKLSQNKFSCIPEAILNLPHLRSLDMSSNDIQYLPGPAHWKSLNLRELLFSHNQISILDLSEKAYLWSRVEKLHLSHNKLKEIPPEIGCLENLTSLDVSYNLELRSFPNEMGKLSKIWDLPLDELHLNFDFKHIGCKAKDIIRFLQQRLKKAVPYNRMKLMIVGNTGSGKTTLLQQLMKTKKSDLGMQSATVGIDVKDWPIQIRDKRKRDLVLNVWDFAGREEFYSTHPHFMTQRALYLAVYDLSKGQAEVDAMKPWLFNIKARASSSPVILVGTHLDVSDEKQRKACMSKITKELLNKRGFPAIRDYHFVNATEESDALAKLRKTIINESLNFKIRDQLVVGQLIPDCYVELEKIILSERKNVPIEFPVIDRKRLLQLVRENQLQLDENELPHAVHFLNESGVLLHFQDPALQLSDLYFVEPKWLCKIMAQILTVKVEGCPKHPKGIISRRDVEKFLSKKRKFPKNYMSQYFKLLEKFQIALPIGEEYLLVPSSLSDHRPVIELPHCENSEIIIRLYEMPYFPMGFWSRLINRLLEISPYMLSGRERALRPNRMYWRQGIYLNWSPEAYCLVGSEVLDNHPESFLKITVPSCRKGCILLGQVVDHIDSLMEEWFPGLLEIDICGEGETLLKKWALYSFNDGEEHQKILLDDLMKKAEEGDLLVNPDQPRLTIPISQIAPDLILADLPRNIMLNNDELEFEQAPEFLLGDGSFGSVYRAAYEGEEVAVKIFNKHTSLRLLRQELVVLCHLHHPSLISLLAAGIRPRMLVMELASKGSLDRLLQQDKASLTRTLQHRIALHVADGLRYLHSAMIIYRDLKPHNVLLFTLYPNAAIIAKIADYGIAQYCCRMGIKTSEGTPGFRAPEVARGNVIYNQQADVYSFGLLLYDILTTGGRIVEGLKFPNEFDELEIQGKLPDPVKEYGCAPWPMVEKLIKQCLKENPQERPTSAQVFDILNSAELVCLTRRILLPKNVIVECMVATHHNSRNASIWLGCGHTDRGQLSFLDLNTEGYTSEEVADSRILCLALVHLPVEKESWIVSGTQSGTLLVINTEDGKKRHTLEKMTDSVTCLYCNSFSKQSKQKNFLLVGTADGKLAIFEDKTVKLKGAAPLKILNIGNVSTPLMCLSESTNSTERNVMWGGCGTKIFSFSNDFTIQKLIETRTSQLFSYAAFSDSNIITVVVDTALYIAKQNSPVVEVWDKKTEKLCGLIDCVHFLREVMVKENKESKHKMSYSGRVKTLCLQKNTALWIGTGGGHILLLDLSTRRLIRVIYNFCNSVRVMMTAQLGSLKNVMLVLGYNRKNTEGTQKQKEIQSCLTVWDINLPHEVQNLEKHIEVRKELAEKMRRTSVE
Put plainly: LRRK2 wild-type kinase activity assay (LanthaScreen TR-FRET). It counts as biochemical. The note with it: 1 nM LRRK2 WT, 1.3 mM ATP, 3.5 h at 30° C.; n≥2 tests. The gist of the method:
(§1)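 TR-FRET measured phosphorylation of fluorescein-ERM LRRKtide by human LRRK2 residues 970–2527, wild-type or G2019S, detected with a terbium anti-phospho-LRRKtide antibody. The 520/495 nm ratio was normalized to uninhibited and inhibitor controls. IC50 came from a Hill fit, log-averaged over independent experiments.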

The target in another data set is T2, LRRK2 G2019S (Homo sapiens, UniProt Q5S007, G2019S).
T2 construct: purchased Invitrogen (Life Technologies Corporation)
T2 sequence (Q5S007 970-2527 G2019S): as the sequence (Q5S007 970-2527) above, with G1050S counted along it
The data set is described as follows: LRRK2 G2019S kinase activity assay (LanthaScreen TR-FRET). In kind it is biochemical. Particulars: 250 pM LRRK2 G2019S, 1.3 mM ATP, 3 h at 30° C.; n≥2 tests. The gist of the method:
as §1
(In general: In TR-FRET formats the signal depends on donor and acceptor labels being close together.)

Data set [2] is described as follows: Free fraction in plasma (equilibrium dialysis). It counts as in vitro ADME, male Sprague-Dawley rat. The note with it: rat plasma, 1 μM, 5 h at 37° C. The protocol: The free fractions in male Sprague-Dawley rat or female Gottingen minipig plasma (fuplasma) and rat brain homogenate (fubrain) were determined by equilibrium dialysis using 96-well HTD-dialysis plates with dialysis membranes (molecular weight cut off 12-14 KDa). One side of the HTD-dialysis plate was loaded with matrix (plasma or brain homogenate) and the other side with buffer (100 mM sodium phosphate buffer, pH 7.4). Test compounds were dissolved in DMSO then spiked (5 μL of 0.2 mM) into blank (995 μL) plasma or diluted brain homogenate (1:4 ratio in phosphate buffer) giving a final nominal concentration 1 μM (≤0.5% DMSO). The matrices were loaded into respective chambers and equilibrated against phosphate buffer for 5 h at 37° C. (in a humidified air incubator with 5% CO2 with shaking). Samples from both chambers (buffer and plasma or brain homogenate) were aliquoted to fresh 96-well polypropylene plates then matrix matched using an equal volume of opposite blank matrix before extraction with cold solvent (3 volumes acetonitrile) containing an appropriate bioanalytical internal standard. After centrifugation (20 min, 3200 g, 4° C.) the supernatants were diluted with appropriate volumes of water and compound concentrations were quantified by LC/MS-MS against matrix matched calibration standards. The fuplasma and fubrain were calculated as a percent free according to equation 4 below.
Where [F] is the analyte concentration on the buffer (receiver) side of the membrane; [T] is the analyte concentration on the plasma or brain (donor) side of the membrane; [TO] is the analyte concentration in the plasma or brain sample at time zero; D is matrix dilution factor which is determined as 4 for brain matrix and 1 for plasma matrix in these assays.

Data set [3] can be described thus: Hepatocyte intrinsic clearance assay. It counts as in vitro ADME, human. Particulars: human, pooled donor, cryopreserved hepatocytes, pH 7.4, 0.1 μM, 2 h at 37° C., 1×10^6 hepatocytes/mL; * measured on 3 separate occasions, ** on a single occasion. On the procedure: Test compounds (final concentration 0.1 μM, 0.05% organic) were incubated for 2 h at 37° C., with shaking, in supplemented Leibovitz L-15 media (pH7.4) containing commercially sourced, pooled donor, cryopreserved hepatocytes (final concentration 1×10^6 hepatocytes/m L). The CLint reactions (350 μL) were initiated by addition of test compound. Aliquots (25 μL) were taken at 1, 5, 10, 15, 30, 60, 90 and 120 minutes and then protein crashed with ice-cold acetonitrile containing internal standard (150 μL) then centrifuged (1960 g for 20 minutes at 4° C.). Supernatant was diluted (1:4) with deionized water then analyzed by liquid chromatography (LC)-tandem mass spectrometry (MS/MS). The intrinsic clearances (CLint) were calculated from the slope (k) of the linear regressions of percentages of compound remaining in incubation against incubation time, according to equations 2 and 3.

Where [4] appears, read: brain, oral gavage 5 mg/kg, n = 3, read-out: Total brain concentration.
Where [5] appears, read: plasma, oral gavage 5 mg/kg, n = 3, read-out: Total plasma concentration.
[6] abbreviates: brain, oral gavage 10 mg/kg, n = 3, read-out: Total brain concentration.
Setting [7] is: plasma, oral gavage 10 mg/kg, n = 3, read-out: Total plasma concentration.

Read-outs that look alike come from different tables or passages of the source.

Turning to `Cc1c2c(nn1[C@H]1CCCCOC1)OCCCn1nc(Cl)c3cnc(nc31)N2` (single isomer, unassigned) [Example 27, (−)-(R) or (S)-8-Chloro-3-methyl-2-(oxepan-3-yl)-2,4,12,13-tetrahydro-11H-5,7-(azenometheno)dipyrazolo[3,4-b:5′,1′-g][1]oxa[4,6,8]triazacycloundecine], the results for the concentration at 1 h in data set [1] (setting [4]) and in data set [1] (setting [5]) were 443 ± 50 ng/g and 273 ± 36 ng/mL, respectively. The compound also had a Kp uu at 1 h in data set [1] (oral gavage 5 mg/kg) of 0.52 ± 0.01. The Kp (as a rule, the ratio of the level in a tissue or fluid to that in plasma or blood) at 1 h in data set [1] (oral gavage 5 mg/kg) came to 1.63 ± 0.03. In addition, the figures for the IC50 at LRRK2 WT and on LRRK2 G2019S were 25 nM and 7.3 nM, respectively. Besides, in data set [2], the “fuplasma (% free)” value was determined as 19.9 % free. In data set [3], the CLint scaled (in general, the rate of metabolic loss divided by the concentration) at 0.1 μM was 9.5 mL/min/kg.

Take `Cc1c2c(nn1[C@H]1CCCOCC1)OCCCn1nc(Cl)c3cnc(nc31)N2` (single isomer, unassigned) [Example 29, (−)-(R) or (S)-8-Chloro-3-methyl-2-(oxepan-4-yl)-2,4,12,13-tetrahydro-11H-5,7-(azenometheno)dipyrazolo[3,4-b:5′,1′-g][1]oxa[4,6,8]triazacycloundecine]: the IC50 (commonly the concentration at which inhibition is half-maximal) on LRRK2 WT is 14 nM; at LRRK2 G2019S, 4.3 nM. Also, the CLint scaled at 0.1 μM in data set [3] was 6.33 mL/min/kg.

With `Cc1c2c(nn1[C@@H]1CCOC[C@H]1F)OCCCn1nc(Cl)c3cnc(nc31)N2` (single isomer, unassigned) [Example 31, (−)-8-Chloro-2-((3S,4R) or (3R,4S)-3-fluorotetrahydro-2H-pyran-4-yl)-3-methyl-2,4,12,13-tetrahydro-11H-5,7-(azenometheno)dipyrazolo[3,4-b:5′,1′-g][1]oxa[4,6,8]triazacycloundecine], the concentration at 1 h in data set [1] (setting [6]) is 215 ± 70 ng/g; in data set [1] (setting [7]) it was 133 ± 54 ng/mL. Further, the Kp uu at 1 h in data set [1] (oral gavage 10 mg/kg) is 0.5 ± 0.04. In addition, the partition ratio (Kp) at 1 h in data set [1] (oral gavage 10 mg/kg) worked out at 1.65 ± 0.13. The 50% inhibitory concentration (IC50) was 5.6 nM on LRRK2 WT and 2.4 nM on LRRK2 G2019S. Besides, in data set [2], the “fuplasma (% free)” value is 24.9 % free. The compound further gave an intrinsic clearance (CLint scaled) at 0.1 μM in data set [3] of less than 4.17 mL/min/kg.

For `Cc1c2c(nn1[C@H]1CCOC(C)(C)C1)OCCCn1nc(Cl)c3cnc(nc31)N2` (single isomer, unassigned) [Example 42, (+)-(R) or (S)-8-Chloro-2-(2,2-dimethyltetrahydro-2H-pyran-4-yl)-3-methyl-2,4,12,13-tetrahydro-11H-5,7-(azenometheno)dipyrazolo[3,4-b:5′,1′-g][1]oxa[4,6,8]triazacycloundecine], the concentration at 0.5 h in data set [1] (setting [6]) stood at 550 ± 283 ng/g; in data set [1] (setting [7]), 295 ± 145 ng/mL. Moreover, the Kp uu at 0.5 h in data set [1] (oral gavage 10 mg/kg) came out at 0.32 ± 0.05. For the same compound, the partition ratio (Kp) at 0.5 h in data set [1] (oral gavage 10 mg/kg) turned out to be 1.88 ± 0.31. Further, the IC50 at LRRK2 WT amounted to 7.9 nM; at LRRK2 G2019S it was 2.9 nM. The “fuplasma (% free)” value in data set [2] was 21.7 % free. The compound further had a CLint scaled at 0.1 μM in data set [3] of 6.33 mL/min/kg.

As for `[2H]C([2H])([2H])c1c2c(nn1[C@H]1CCCOCC1)OCCCn1nc(Cl)c3cnc(nc31)N2` (single isomer, unassigned) [Example 58, (+)-(R) or (S)-8-Chloro-3-(methyl-d3)-2-(oxepan-4-yl)-2,4,12,13-tetrahydro-11H-5,7-(azenometheno)dipyrazolo[3,4-b:5′,1′-g][1]oxa[4,6,8]triazacycloundecine], the values for the IC50 at LRRK2 WT and at LRRK2 G2019S were 19 nM and 7 nM, respectively. Also, the intrinsic metabolic clearance (CLint scaled) at 0.1 μM in data set [3] is 5 mL/min/kg.

Turning to `[2H]C([2H])([2H])c1c2c(nn1[C@@H]1CCOC[C@H]1F)OCCCn1nc(Cl)c3cnc(nc31)N2` (single isomer, unassigned) [Example 62, (−)-8-Chloro-2-((3R,4S) or (3S,4R)-3-fluorotetrahydro-2H-pyran-4-yl)-3-(methyl-d3)-2,4,12,13-tetrahydro-11H-5,7-(azenometheno)dipyrazolo[3,4-b:5′,1′-g][1]oxa[4,6,8]triazacycloundecine], the results for the IC50 at LRRK2 WT and on LRRK2 G2019S were 17 nM and 5.9 nM, respectively. In data set [3], this compound came in with an intrinsic clearance (CLint scaled) at 0.1 μM of less than 4 mL/min/kg.

With `[2H]C([2H])([2H])c1c2c(nn1C1([2H])CCOCC1)OCCCn1nc(Cl)c3cnc(nc31)N2` [Example 15, 8-Chloro-3-(methyl-d3)-2-(tetrahydro-2H-pyran-4-yl-4-d)-2,4,12,13-tetrahydro-11H-5,7-(azenometheno)dipyrazolo[3,4-b:5′,1′-g][1]oxa[4,6,8]triazacycloundecine], the IC50 on LRRK2 WT turned out to be 6.8 nM; at LRRK2 G2019S, 2.4 nM. In addition, in data set [3], the intrinsic clearance (CLint scaled) at 0.1 μM was 4 mL/min/kg.

On to `Cc1c2c(nn1C13CC(C#N)(C1)C3)OCCCn1nc(Cl)c3cnc(nc31)N2` [Example 33, 3-(8-Chloro-3-methyl-12,13-dihydro-11H-5,7-(azenometheno)dipyrazolo[3,4-b:5′,1′-g][1]oxa[4,6,8]triazacycloundecin-2(4H)-yl)bicyclo[1.1.1]pentane-1-carbonitrile], for which the concentration at 1 h in data set [1] (setting [4]) came to 37 ± 1 ng/g; in data set [1] (setting [5]), 43 ± 9 ng/mL. This compound also showed a Kp uu at 1 h in data set [1] (oral gavage 5 mg/kg) of 0.4 ± 0.07. Besides, the concentration ratio (Kp) at 1 h in data set [1] (oral gavage 5 mg/kg) was 0.87 ± 0.15. The IC50 amounted to 18 nM at LRRK2 WT and 5.9 nM on LRRK2 G2019S. Also, the “fuplasma (% free)” value in data set [2] is 11.0 % free.

In the case of `Cc1c2c(nn1[C@H]1[C@@H]3COC[C@@H]31)OCCCn1nc(Cl)c3cnc(nc31)N2` [Example 38, 2-((1R,5S,6r)-3-Oxabicyclo[3.1.0]hexan-6-yl)-8-chloro-3-methyl-2,4,12,13-tetrahydro-11H-5,7-(azenometheno)dipyrazolo[3,4-b:5′,1′-g][1]oxa[4,6,8]triazacycloundecine], the concentration at 0.5 h in data set [1] (setting [6]) stood at 562 ± 83 ng/g; in data set [1] (setting [7]), 355 ± 31 ng/mL. The same compound gave a Kp uu at 0.5 h in data set [1] (oral gavage 10 mg/kg) of 0.48 ± 0.03. For the same compound, in data set [1] (oral gavage 10 mg/kg), the Kp at 0.5 h came to 1.58 ± 0.1. For the same compound, the IC50 on LRRK2 WT was 28 nM; at LRRK2 G2019S, 11 nM. Also, the “fuplasma (% free)” value in data set [2] is 30.0 % free.

On to `CCc1c2c(nn1[C@H]1CC[C@H](OC)CC1)OCCCn1nc(Cl)c3cnc(nc31)N2` [Example 57, 8-Chloro-3-ethyl-2-((1r,4r)-4-methoxycyclohexyl)-2,4,12,13-tetrahydro-11H-5,7-(azenometheno)dipyrazolo[3,4-b:5′,1′-g][1]oxa[4,6,8]triazacycloundecine], for which the figures for the IC50 on LRRK2 WT and at LRRK2 G2019S were 16 nM and 6.2 nM, respectively. In addition, in data set [3], the CLint scaled at 0.1 μM was 8.5 mL/min/kg.

Source of the values: patent publication US11780851B2, “LRRK2 inhibitors” (H. Lundbeck A/S, priority 2021, dated 2023).
